Entries after “also recorded” stand apart in the source; their conditions may differ.
Tests used:
ICAM1 = ICAM1 expression of spinal cord tissue by Western Blot, rat spinal cord injury model; assay type: in vivo; conditions: 15 mg/kg injected 15 minutes before striking injury, experimental group vs control group, gray level analysis
Description: (§1) Animal models of acute spinal cord injury experiment were established by using an IMPACTOR MODEL-II spinal cord injury striking system. Sixty female Wistar rats with the age from 8 to 10 weeks and the weight from 230 to 250 g were divided into three groups with 20 rats in each group: a sham-surgery operated group, a control group (spinal cord injury group) and an experimental group, respectively. At 15 minutes before striking injury, the rats in the experimental group were injected with the compound of the formula (I) at a dose of 15 mg/kg body weight.
(§2) At 6 hours, 24 hours, 48 hours, 7 days, 14 days, and 28 days after injury, respectively, the rat spinal cord tissues were sampled for the Western Blot test, so as to test the inhibiting function of the compound of the formula (I) against the pro-inflammatory cytokines at the spinal cord injury sites.

TNF-α = TNF-α expression of spinal cord tissue by Western Blot, rat spinal cord injury model; assay type: in vivo; conditions: 15 mg/kg, experimental group vs control group, gray level analysis
Description: as §1, §2

IL-1β = IL-1β expression of spinal cord tissue by Western Blot, rat spinal cord injury model; assay type: in vivo; conditions: 15 mg/kg, experimental group vs control group, gray level analysis
Description: as §1, §2

Caspase 3 = Caspase 3 expression of spinal cord tissue by Western Blot, rat spinal cord injury model; assay type: in vivo; conditions: 15 mg/kg, experimental group vs control group, gray level analysis
Description: as §1
(§3) At 6 hours, 24 hours, 48 hours, 7 days, 14 days, 28 days and 56 days after injury, respectively, the rat spinal cord tissues were sampled for the Western Blot test and TUNEL staining, so as to test the inhibiting function of the compound of the formula (I) against the cell apoptosis at the spinal cord injury sites.

spinal cord tissues [1] = experiment: TUNEL staining of spinal cord tissues (cell apoptosis), rat spinal cord injury model; assay type: in vivo; conditions: 48 hours after injury; 15 mg/kg; difference between control group and experimental group
Description: as §1, §3
At 48 hours after injury, TUNEL staining was performed on three groups of spinal cord tissues. TUNEL-stained positive cells were located in the gray matter and white matter of the spinal cords, and the cell nuclei was stained brown-yellow and mostly distributed in the center of the injure and the margin thereof. […]

spinal cord tissues [2] = experiment: HE staining of spinal cord tissues (void, inflammatory cells), rat spinal cord injury model; assay type: in vivo
Description: as §1
No spinal cord structure destroy was observed on the rats in the sham-surgery operated group. In the control group, significant changes occurred, mainly including hemorrhage, infiltration with a large number of inflammatory cells and spinal cord structural disorder, and it was observed that in grey matter, a large number of cells were lost, while in the white matter, significant swelling of neurites was observed and axonal terminals were in sphere.

[3] = tested on: Glial Fibrillary Acidic Protein (GFAP); experiment: GFAP frozen-section immunofluorescence (glial scar), rat spinal cord injury model; assay type: in vivo
Description: as §1
2. Testing Glial Fibrillary Acidic Protein (GFAP) Expression by Frozen-Section Immunofluorescence Histochemical Method
At 48 hours after injury, the spinal cord tissues were subjected to GFAP immunofluorescent staining.

NEUN(+) neuron cells = experiment: NEUN immunohistochemical staining (neuron survival), rat spinal cord injury model; assay type: in vivo; conditions: 48 hours and 2 weeks after injury; experimental group vs control group
Description: as §1
At 48 hours and 2 weeks after injury, respectively, the three groups of rat spinal cord tissues were subjected to NEUN immunohistochemical staining.

oligodendrocytes = experiment: CNpase immunohistochemical staining (oligodendrocyte survival), rat spinal cord injury model; assay type: in vivo
Description: as §1
At 48 hours and 2 weeks after injury, respectively, the three groups of spinal cord tissues were subjected to CNpase immunohistochemical staining.

[4] = tested on: rats after spinal cord injury; experiment: BBB score of motor function of rear limbs after spinal cord injury; assay type: in vivo, rat; conditions: comparison between experimental group and control group
Description: as §1
Motor function of rear limbs of the tested animals were evaluated by scoring with BBB (Basso Beattie Bresnahan locomotor rating scale, BBB). The BBB scoring was one of internationally recognized objective standards regarding nerve functions of rats after spinal cord injury. In the project, the motor function of rear limbs of the rats was evaluated from 1 day before injury to 8 weeks after injury by double-blind independent observations and records with two persons and finally statistical analyses.

## CC(C)(C)OC(=O)c1ccc(NC23CC4CC(CC(C4)C2)C3)c(/N=C\c2cncnc2)c1 [compound of the formula (I)]
ICAM1; 2 weeks after injury
  ICAM1 expression: significantly decreased
ICAM1; 48 hours after injury
  ICAM1 expression: significantly decreased
TNF-α; 2 weeks after injury
  TNF-α expression: significantly decreased
TNF-α; 48 hours after injury
  TNF-α expression: decreased, close to the level of the shame-surgery operated group
IL-1β; 2 weeks after injury
  IL-1β expression: significantly decreased
IL-1β; 48 hours after injury
  IL-1β expression: significantly decreased, close to the level of the shame-surgery operated group
Caspase 3; 2 weeks after injury
  Caspase 3 expression: significantly decreased
Caspase 3; 48 hours after injury
  Caspase 3 expression: significantly decreased
Spinal cord tissues [1]
  quantity of TUNEL-stained positive cells: had a statistical significance (p<0.05)
Spinal cord tissues [2]; 8 weeks after spinal cord injury, control group compared to experimental group
  area of voids (HE staining): significantly increased as compared to that in the experimental group
Spinal cord tissues [2]; 8 weeks after spinal cord injury, experimental group vs control group
  inflammatory cells (HE staining, high magnification): significantly reduced
Spinal cord tissues [2]; 48 hours after injury, 200×, 15 mg/kg, vs control group
  HE staining changes (hemorrhage, inflammatory cell infiltration, spinal cord structural disorder): could significantly alleviate the above series of changes
Spinal cord tissues [2]; 48 hours after injury, comparison between control group and experimental group
  histopathological scores: did not have statistical significance
[3]; 2 weeks after surgery, control group vs experimental group
  GFAP fluorescence: control group was still stronger than the experimental group
[3]; 48 hours after injury, experimental group vs control group
  quantity of the formed glial scars (GFAP immunofluorescent staining): significantly decreased as compared to the control group
NEUN(+) neuron cells
  NEUN(+) neuron cells: more positive cells were present in the experimental group
  survival rate of neuron cells: higher than that in the control group
oligodendrocytes; 2 weeks after injury, experimental group vs control group
  CNpase positive area and positive cells: had a larger positive area and more positive cells
oligodendrocytes; 48 hours after injury, vs sham-surgery operated group
  CNpase positive area: did not markedly differ from that in the shame-surgery operated group
oligodendrocytes; experimental group vs control group
  survival rate of the oligodendrocytes: higher than that in the control group
[4]; 1 week after injury
  BBB score: did not have any statistical significance (p>0.05)
[4]; 2 weeks after injury
  BBB score: had a statistical significance (p<0.05)
[4]; 8 weeks after injury
  BBB score: had a statistical significance (p<0.01); also recorded: significantly higher than that of the control group
[4]; 48 hours after injury
  BBB score: did not have any statistical significance (p>0.05)
